Experimental data taken from patent publication US7247627B2, “Salts and polymorphs of a pyrrole-substituted indolinone compound” (Pharmacia & Upjohn Company, priority 2003, dated 2007).

Key:
[1] = Hygroscopicity by dynamic moisture sorption gravimetry (DMSG); type: physicochemical; details: DMSG, 25° C., 80% relative humidity
Procedure: In one embodiment, the invention provides a non-hygroscopic salt of 5-[(Z)-(5-fluoro-2-oxo-1,2-dihydro-3H-indol-3-ylidene)methyl]-N-[(2S)-2-hydroxy-3-morpholin-4-ylpropyl]-2,4-dimethyl-1H-pyrrole-3-carboxamide. Hygroscopicity is determined by dynamic moisture sorption gravimetry (DMSG) using a controlled atmosphere microbalance at a temperature of 25° C. Samples are analyzed over a relative humidity range of from 0 to 90% in 3% steps. Each step is brought to equilibrium before moving to the next step, with equilibrium assessed as a weight change of less than 0.002 mg (0.02%) for five consecutive points at 1 point per 120 seconds.
Several salts of 5-[(Z)-(5-fluoro-2-oxo-1,2-dihydro-3H-indol-3-ylidene)methyl]-N-[(2S)-2-hydroxy-3-morpholin-4-ylpropyl]-2,4-dimethyl-1H-pyrrole-3-carboxamide were produced and analyzed for hygroscopicity. Hygroscopicity was determined by dynamic moisture sorption gravimetry (DMSG) using a controlled atmosphere microbalance at a temperature of 25° C. Samples were analyzed over a relative humidity range of from 0 to 90% in 3% steps, in a humidity profile of […], where the initial value of 36% reflects the approximate initial equilibrated relative humidity (not specifically measured). Each step was brought to equilibrium before moving to the next step, with equilibrium assessed as a weight change of less than 0.001 mg (0.01%) or 0.002 mg (0.02%) for five consecutive points at 1 point per 120 seconds. The water uptake at 80% relative humidity (RH) was selected for comparison between the salts. The 80% RH values for each salt are shown in Table 5, and the right column of the table identifies the corresponding Figure showing the complete DMSG scan. A range of values given for the water uptake at 80% reflects hysteresis in the 0→90% and 90→0% scans.

[2] = Chemical stability in temperature and humidity-controlled chamber (Example 2); type: physicochemical; parameters: key to Appearance: U: unchanged
Procedure: Chemical stability was assessed for two different samples of 5-[(Z)-(5-fluoro-2-oxo-1,2-dihydro-3H-indol-3-ylidene)methyl]-N-[(2S)-2-hydroxy-3-morpholin-4-ylpropyl]-2,4-dimethyl-1H-pyrrole-3-carboxamide maleate salt, polymorph Form 1. Samples were maintained in a temperature and humidity-controlled chamber at 25° C. and 60% relative humidity (Tables 7 and 8) or at 40° C. and 75% relative humidity (Tables 9 and 10). At various time intervals, material was removed and tested for maleate counterion assay, impurities, water content and enantiomeric purity.
The maleate counterion assay was determined by ion exchange chromatography (IEC).
A suitable amount of the maleate salt is dissolved in water (Milli Q grade) and analyzed by IEC, and compared to calibration samples. Under these conditions, the peak due to maleic acid has a retention time of about 11 minutes. The amount of maleic acid in the sample is calculated as: % Assay=(Cs/W)×100 where Cs is the concentration of maleic acid found in the sample, and W is the theoretical sample concentration in the aqueous solution.
The amounts of impurities and degradation products were determined by HPLC, using a Perkin Elmer LC 200 system with a diode array detector. The analytical column was a Waters Xterra RP18, 5 μm, 250×4.6 mm, and the guard column was a Waters Xterra RP18, 5 μm, 20×3.9 mm. Mobile phase A was a mixture of 90% 0.05 M ammonium acetate buffer at pH 5.5 and 10% acetonitrile. Mobile phase B was a mixture of 10% 0.05 M ammonium acetate buffer at pH 5.5 and 90% acetonitrile.
Flow rate was 1 mL/min, injection volume 30 μL, room temperature, 435 nm detection. Under these conditions, the peak due to the maleate salt has a retention time of about 24 minutes. Impurities are characterized by their relative retention time (RRT). The impurity at RRT=0.26 is the E isomer. The other impurities were not characterized.
Enantiomeric purity was determined by HPLC, using a Chiralpak AD analytical column, 10 μm, 250×4.6 mm (Daicel Chemical Industries, Ltd.) using an oven temperature of 30° C., a mobile phase of 2-propanol/heptane/diethylamine (50/50/0.1), an isocratic elution mode, a flow rate of 0.5 mL/min, injection volume of 50 μL, detector wavelength of 265 nm, dilution solvent 2-propanol/heptane (50/50) and a sample concentration of 0.3 mg/mL. Under these conditions, the S isomer has a retention time of about 15.5 minutes, and the R isomer has a retention time of about 22 minutes.
Water content was determined according to USP 25, <921>, Method Ic.

[3] = 25° C. and 60% Relative Humidity, 1 mo.
[4] = 25° C. and 60% Relative Humidity, 3 mo.
[5] = 25° C. and 60% Relative Humidity, 6 mo.
[6] = 25° C. and 60% Relative Humidity, 9 mo.
[7] = 25° C. and 60% Relative Humidity, 12 mo.
[8] = 25° C. and 60% Relative Humidity, Initial
[9] = 40° C. and 75% Relative Humidity, 1 mo.
[10] = 40° C. and 75% Relative Humidity, 3 mo.
[11] = 40° C. and 75% Relative Humidity, 6 mo.
[12] = 40° C. and 75% Relative Humidity, Initial

**Q.** Which “Water Uptake at 80% RH (wt. %)” value [1] does the source give for Cc1[nH]c(/C=C2\C(=O)Nc3ccc(F)cc32)c(C)c1C(=O)NC[C@H](O)CN1CCOCC1 [Mandalate, 5-[(Z)-(5-fluoro-2-oxo-1,2-dihydro-3H-indol-3-ylidene)methyl]-N-[(2S)-2-hydroxy-3-morpholin-4-ylpropyl]-2,4-dimethyl-1H-pyrrole-3-carboxamide] here?
**A.** 5–6 wt. %

**Q.** Which results are given for Cc1[nH]c(/C=C2\C(=O)Nc3ccc(F)cc32)c(C)c1C(=O)NC[C@H](O)CN1CCOCC1 [Sample A, 5-[(Z)-(5-fluoro-2-oxo-1,2-dihydro-3H-indol-3-ylidene)methyl]-N-[(2S)-2-hydroxy-3-morpholin-4-ylpropyl]-2,4-dimethyl-1H-pyrrole-3-carboxamide]?
**A.** Appearance [2, 3]: U^a; Assay (% free base equivalent) [2, 3]: 97.5 % free base equivalent; Enantiomeric Purity (%) [2, 3]: >99.9%; Impurities (%) RRT 0.26 [2, 3]: 0.28%; Impurities (%) RRT 0.51 [2, 3]: 0.41%; Impurities (%) RRT 0.71 [2, 3]: 0.06%; Impurities (%) RRT 1.53 [2, 3]: 0.11%; Impurities (%) RRT 1.74 [2, 3]: 0.10%; Impurities (%) RRT 1.84 [2, 3]: 0.13%; Total Impurities (%) [2, 3]: 1.09%; Water Content (%) [2, 3]: 0.53%; Appearance [2, 4]: U^a; Assay (% free base equivalent) [2, 4]: 98.4 % free base equivalent; Enantiomeric Purity (%) [2, 4]: >99.9%; Impurities (%) RRT 0.26 [2, 4]: 0.05%; Impurities (%) RRT 0.51 [2, 4]: 0.40%; Impurities (%) RRT 1.53 [2, 4]: 0.12%; Impurities (%) RRT 1.74 [2, 4]: 0.09%; Impurities (%) RRT 1.84 [2, 4]: 0.12%; Total Impurities (%) [2, 4]: 0.78%; Water Content (%) [2, 4]: 0.68%; Appearance [2, 5]: U^a; Assay (% free base equivalent) [2, 5]: 98.4 % free base equivalent; Enantiomeric Purity (%) [2, 5]: >99.9%; Impurities (%) RRT 0.26 [2, 5]: 0.07%; Impurities (%) RRT 0.51 [2, 5]: 0.42%; Impurities (%) RRT 1.53 [2, 5]: 0.12%; Impurities (%) RRT 1.74 [2, 5]: 0.09%; Impurities (%) RRT 1.84 [2, 5]: 0.12%; Total Impurities (%) [2, 5]: 0.82%; Water Content (%) [2, 5]: 0.46%; Appearance [2, 6]: U^a; Assay (% free base equivalent) [2, 6]: 98.4 % free base equivalent; Enantiomeric Purity (%) [2, 6]: >99.9%; Impurities (%) RRT 0.26 [2, 6]: 0.15%; Impurities (%) RRT 0.51 [2, 6]: 0.36%; Impurities (%) RRT 1.53 [2, 6]: 0.12%; Impurities (%) RRT 1.74 [2, 6]: 0.07%; Impurities (%) RRT 1.84 [2, 6]: 0.10%; Total Impurities (%) [2, 6]: 0.77%; Water Content (%) [2, 6]: 0.42%; Appearance [2, 7]: U^a; Assay (% free base equivalent) [2, 7]: 98.2 % free base equivalent; Enantiomeric Purity (%) [2, 7]: >99.9%; Impurities (%) RRT 0.26 [2, 7]: 0.06%; Impurities (%) RRT 0.51 [2, 7]: 0.33%; Impurities (%) RRT 1.53 [2, 7]: 0.13%; Impurities (%) RRT 1.74 [2, 7]: 0.07%; Impurities (%) RRT 1.84 [2, 7]: 0.11%; Total Impurities (%) [2, 7]: 0.70%; Water Content (%) [2, 7]: 0.74%; Assay (% free base equivalent) [2, 8]: 98.7 % free base equivalent; Enantiomeric Purity (%) [2, 8]: >99.9%; Impurities (%) RRT 0.26 [2, 8]: 0.09%; Impurities (%) RRT 0.51 [2, 8]: 0.40%; Impurities (%) RRT 0.71 [2, 8]: 0.05%; Impurities (%) RRT 1.53 [2, 8]: 0.10%; Impurities (%) RRT 1.74 [2, 8]: 0.09%; Impurities (%) RRT 1.84 [2, 8]: 0.10%; Total Impurities (%) [2, 8]: 0.83%; Water Content (%) [2, 8]: 0.55%; Appearance [2, 9]: U^a; Assay (% free base equivalent) [2, 9]: 97.9 % free base equivalent; Enantiomeric Purity (%) [2, 9]: 100.00%; Impurities (%) RRT 0.26 [2, 9]: 0.29%; Impurities (%) RRT 0.51 [2, 9]: 0.39%; Impurities (%) RRT 1.53 [2, 9]: 0.11%; Impurities (%) RRT 1.74 [2, 9]: 0.08%; Impurities (%) RRT 1.84 [2, 9]: 0.13%; Total Impurities (%) [2, 9]: 1.00%; Water Content (%) [2, 9]: 0.57%; Appearance [2, 10]: U^a; Assay (% free base equivalent) [2, 10]: 98.5 % free base equivalent; Enantiomeric Purity (%) [2, 10]: 100.00%; Impurities (%) RRT 0.26 [2, 10]: 0.05%; Impurities (%) RRT 0.51 [2, 10]: 0.40%; Impurities (%) RRT 1.53 [2, 10]: 0.14%; Impurities (%) RRT 1.74 [2, 10]: 0.08%; Impurities (%) RRT 1.84 [2, 10]: 0.12%; Total Impurities (%) [2, 10]: 0.80%; Water Content (%) [2, 10]: 0.69%; Appearance [2, 11]: U^a; Assay (% free base equivalent) [2, 11]: 98.0 % free base equivalent; Enantiomeric Purity (%) [2, 11]: 100.00%; Impurities (%) RRT 0.26 [2, 11]: 0.07%; Impurities (%) RRT 0.51 [2, 11]: 0.40%; Impurities (%) RRT 1.53 [2, 11]: 0.15%; Impurities (%) RRT 1.74 [2, 11]: 0.07%; Impurities (%) RRT 1.84 [2, 11]: 0.12%; Total Impurities (%) [2, 11]: 0.81%; Water Content (%) [2, 11]: 0.42%; Assay (% free base equivalent) [2, 12]: 98.7 % free base equivalent; Enantiomeric Purity (%) [2, 12]: 100.00%; Impurities (%) RRT 0.26 [2, 12]: 0.09%; Impurities (%) RRT 0.51 [2, 12]: 0.40%; Impurities (%) RRT 0.71 [2, 12]: 0.05%; Impurities (%) RRT 1.53 [2, 12]: 0.10%; Impurities (%) RRT 1.74 [2, 12]: 0.09%; Impurities (%) RRT 1.84 [2, 12]: 0.10%; Total Impurities (%) [2, 12]: 0.83%; Water Content (%) [2, 12]: 0.55%
